These are literature values, as cited in patent US20070293700A1, “Process for the Preparation of Gabapentin” (Zambon Group S.P.A., priority 2004, published 2007).

Where two headings read alike, the source gives them in different places.

The conditions of data set [1]: pH at which the isoelectric point is reached.

For the molecule `NCC1(CC(=O)O)CCCCC1` [gabapentin, 1-(aminomethyl)-cyclohexaneacetic acid], the “isoelectric point (pH)” value in data set [1] was 7.14. Moreover, the solubility in water result (0° C.) was “about 8.5%” and the solubility in water (temperature of 20° C.) is ~11%.
